Consider 24 molecules from patent publication US8759334B2, “Compounds useful for the treatment of metabolic and inflammatory diseases” (Galapagos NV, priority 2011, dated 2014).

Experiment [1] addresses T1, GPR43 (Homo sapiens, UniProt O15552).
T1 construct: expressed in transfected cells
T1 sequence (O15552 1-330): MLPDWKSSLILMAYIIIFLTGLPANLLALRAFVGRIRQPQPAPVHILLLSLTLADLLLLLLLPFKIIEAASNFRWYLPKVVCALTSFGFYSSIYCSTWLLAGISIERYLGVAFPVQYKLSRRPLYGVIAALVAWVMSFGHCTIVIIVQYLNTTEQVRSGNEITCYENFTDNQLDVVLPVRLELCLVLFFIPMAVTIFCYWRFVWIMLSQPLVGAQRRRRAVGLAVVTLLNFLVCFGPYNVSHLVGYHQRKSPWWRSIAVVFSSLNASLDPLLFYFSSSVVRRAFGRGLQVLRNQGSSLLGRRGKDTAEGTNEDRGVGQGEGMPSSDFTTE
Put plainly: Calcium mobilization assay with probenecid. The format is cell-based. Particulars: GPR43 stably expressing cells; triggered with sodium acetate at EC80; 2.5 mM probenecid; read-out: GPR43 assay with probenicid IC50. In a few lines:
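[…] being added at rising concentrations to a GPR43 stable line. Before this, cells were dye-loaded (Calcium 4 with 2.5 mM probenecid) for 2 h at 37 °C after overnight plating.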
Background: Calcium assays in cells follow changes in intracellular calcium, usually with a dye or a luminescent sensor.

In experiment [2] the target is T1, GPR43. As to the kind of experiment: Calcium mobilization assay without probenecid. Type of experiment: cell-based. As to conditions: GPR43 stably expressing cells, triggered with sodium acetate at EC80, read-out: GPR43 assay without probenicid IC50. The procedure:
The following assay can be used for determination of GPR43 activation. The assay measures intracellular calcium release induced by activation of GPR43. On day 1, GPR43 stably expressing cells were detached with mild trypsinization (Trypsin, 0.25% with EDTA 4Na, 5× diluted in PBS) centrifuged at 1000 rpm for 5 min and resuspended at 6.000 cells/25 μL medium (DMEM supplemented with 10% FBS, 10 μg/mL puromycin and 1% Pen/Strep). The cells were distributed in poly-D-lysine coated 384 well plates (black with clear bottom, 25 μL/well) and incubated overnight at 37° C. 10% CO2. On day 2, 25 μL of a fluorescent Ca^2+ indicator (Calcium 4 assay; Molecular Devices) was added on top of the cells and incubated for 2 h at 37° C. Subsequently, compounds at increasing concentration (10 μL/well) were added to the plate and incubated for 15 min at 37° C. Finally the cells were triggered with sodium acetate at EC80 concentration (concentration which gives 80% of the activity of the GPR43) and the Ca-flux was measured simultaneously to the trigger injection on a fluorescence plate reader (FlexStation3), this measures the antagonist activity of the compounds. To measure agonist activity of the compounds, compound was added to the well and the Ca-flux was measured simultaneously to the injection of compound.

Bounds are passed on as bounds.

What is called IC50 is the concentration that inhibits the measured activity by half. On to `CN(Cc1ccc(Cl)cc1)C(=O)C1(C)CCN1C(=O)Cc1cccc(-c2ccccc2C(F)(F)F)c1` (stereo not drawn) [Compound 28, 2-Methyl-1-[2-(2′-trifluoromethyl-biphenyl-3-yl)-acetyl]-azetidine-2-carboxylic acid (4-chloro-benzyl)-methyl-amide], for which the IC50 at GPR43 [1] and at GPR43 [2] was greater than 1000 nM in each case.

On to `CN(Cc1ccc(Cl)cc1)C(=O)C1(C)CCN1C(=O)Cc1cccc(-c2cccc(Cl)c2)c1` (stereo not drawn) [Compound 29, 1-[2-(3′-Chloro-biphenyl-3-yl)-acetyl]-2-methyl-azetidine-2-carboxylic acid (4-chloro-benzyl)-methyl-amide], for which the IC50 on GPR43 [1] and on GPR43 [2] was greater than 1000 nM throughout.

In the case of `Cc1cc(C)cc(CC(=O)N2CCC2(C)C(=O)N(C)Cc2ccc(Br)cc2)c1` (stereo not drawn) [Compound 30, 1-[2-(3,5-Dimethyl-phenyl)-acetyl]-2-methyl-azetidine-2-carboxylic acid (4-bromo-benzyl)-methyl-amide], the concentration for half-maximal inhibition (IC50) at GPR43 [1] and at GPR43 [2] was greater than 1000 nM throughout.

With `Cc1cc(C)cc(CC(=O)N2CCC2(C)C(=O)N(C)Cc2ccc(C(C)C)cc2)c1` (stereo not drawn) [Compound 31, 1-[2-(3,5-Dimethyl-phenyl)-acetyl]-2-methyl-azetidine-2-carboxylic acid (4-isopropyl-benzyl)-methyl-amide], the IC50 at GPR43 [1] is greater than 1000 nM; at GPR43 [2], 501 to 1000 nM.

Take `Cc1cc(C)cc(CC(=O)N2CCC2(C)C(=O)N(C)Cc2ccc(C(C)(C)C)cc2)c1` (stereo not drawn) [Compound 32, 1-[2-(3,5-Dimethyl-phenyl)-acetyl]-2-methyl-azetidine-2-carboxylic acid (4-tert-butyl-benzyl)-methyl-amide]: the IC50 at GPR43 [1] and at GPR43 [2] was greater than 1000 nM throughout.

For the molecule `Cc1cc(C)cc(CC(=O)N2CCC2(C)C(=O)N(C)Cc2ccc(C)cc2C)c1` (stereo not drawn) [Compound 33, 1-[2-(3,5-Dimethyl-phenyl)-acetyl]-2-methyl-azetidine-2-carboxylic acid (2,4-dimethyl-benzyl)-methyl-amide], the IC50 on GPR43 [1] is greater than 1000 nM; on GPR43 [2], 501 to 1000 nM.

For `Cc1cc(C)cc(CC(=O)N2CCC2(C)C(=O)N(C)Cc2ccc(CC(C)C)cc2)c1` (stereo not drawn) [Compound 34, 1-[2-(3,5-Dimethyl-phenyl)-acetyl]-2-methyl-azetidine-2-carboxylic acid (4-isobutyl-benzyl)-methyl-amide], the IC50 at GPR43 [1] and at GPR43 [2] was greater than 1000 nM each time.

Take `CCN(Cc1ccc(Cl)cc1)C(=O)C1(C)CCN1C(=O)Cc1cc(C)cc(C)c1` (stereo not drawn) [Compound 35, 1-[2-(3,5-Dimethyl-phenyl)-acetyl]-2-methyl-azetidine-2-carboxylic acid (4-chloro-benzyl)-ethyl-amide]: the IC50 on GPR43 [1] and at GPR43 [2] was 101 to 500 nM each time.

`Cc1cc(C)cc(CC(=O)N2CCC2(C)C(=O)N(C)Cc2ccc(Cl)cc2Cl)c1` (stereo not drawn) [Compound 36, 1-[2-(3,5-Dimethyl-phenyl)-acetyl]-2-methyl-azetidine-2-carboxylic acid (2,4-dichloro-benzyl)-methyl-amide]: the half-maximal inhibitory concentration (IC50) on GPR43 [1] and on GPR43 [2] was greater than 1000 nM in each case.

With `Cc1cc(C)cc(CC(=O)N2CCC2(C)C(=O)N(C)Cc2ccc(OC(F)(F)F)cc2)c1` (stereo not drawn) [Compound 37, 1-[2-(3,5-Dimethyl-phenyl)-acetyl]-2-methyl-azetidine-2-carboxylic acid methyl-(4-trifluoromethoxy-benzyl)-amide], the IC50 was greater than 1000 nM on GPR43 [1] and 501 to 1000 nM at GPR43 [2].

On to `COc1cccc(-c2ccc(CC(=O)N3CCC3(C)C(=O)N(C)Cc3ccc(Cl)cc3)cc2)c1` (stereo not drawn) [Compound 38, 1-[2-(3′-Methoxy-biphenyl-4-yl)-acetyl]-2-methyl-azetidine-2-carboxylic acid (4-chloro-benzyl)-methyl-amide], for which the half-inhibitory concentration (IC50) at GPR43 [1] and at GPR43 [2] was greater than 1000 nM each time.

As for `Cc1cc(C)cc(CC(=O)N2CCC2(C)C(=O)N(C)Cc2ccc(Cl)c(F)c2)c1` (stereo not drawn) [Compound 42, 1-[2-(3,5-Dimethyl-phenyl)-acetyl]-2-methyl-azetidine-2-carboxylic acid (4-chloro-3-fluoro-benzyl)-methyl-amide], the IC50 at GPR43 [1] and on GPR43 [2] was greater than 1000 nM throughout.

In the case of `Cc1ccc(CNC(=O)C2(C)CCN2C(=O)Cc2ccc(Cl)cc2Cl)cc1` (stereo not drawn) [Compound 43, 1-[2-(2,4-Dichloro-phenyl)-acetyl]-2-methyl-azetidine-2-carboxylic acid 4-methyl-benzylamide], the IC50 at GPR43 [1] and on GPR43 [2] was greater than 1000 nM in each case.

Regarding `CC1(C(=O)NCc2ccc(C(F)(F)F)cc2)CCN1C(=O)Cc1ccc(Cl)cc1Cl` (stereo not drawn) [Compound 44, 1-[2-(2,4-Dichloro-phenyl)-acetyl]-2-methyl-azetidine-2-carboxylic acid 4-trifluoromethyl-benzylamide], the IC50 at GPR43 [1] and at GPR43 [2] was greater than 1000 nM in each case.

For `CN(Cc1ccc(C(F)(F)F)cc1)C(=O)C1(C)CCN1C(=O)Cc1ccc(Cl)cc1Cl` (stereo not drawn) [Compound 45, 1-[2-(2,4-Dichloro-phenyl)-acetyl]-2-methyl-azetidine-2-carboxylic acid methyl-(4-trifluoromethyl-benzyl)-amide], the IC50 on GPR43 [1] and at GPR43 [2] was greater than 1000 nM in each case.

In the case of `Cc1cc(C)cc(CC(=O)N2CCC2(C)C(=O)N(Cc2ccc(Cl)cc2)C2CC2)c1` (stereo not drawn) [Compound 46, 1-[2-(3,5-Dimethyl-phenyl)-acetyl]-2-methyl-azetidine-2-carboxylic acid (4-chloro-benzyl)-cyclopropyl-amide], the IC50 on GPR43 [1] and at GPR43 [2] was greater than 1000 nM throughout.

Take `COC(=O)CN(Cc1ccc(Cl)cc1)C(=O)C1(C)CCN1C(=O)Cc1cc(C)cc(C)c1` (stereo not drawn) [Compound 48, ((4-Chloro-benzyl)-{1-[2-(3,5-dimethyl-phenyl)-acetyl]-2-methyl-azetidine-2-carbonyl}-amino)-acetic acid methyl ester]: the IC50 at GPR43 [1] and on GPR43 [2] was 501 to 1000 nM in each case.

On to `Cc1cc(C)cc(CC(=O)N2CCC2(C)C(=O)N(CC(=O)O)Cc2ccc(Cl)cc2)c1` (stereo not drawn) [Compound 49, ((4-Chloro-benzyl)-{1-[2-(3,5-dimethyl-phenyl)-acetyl]-2-methyl-azetidine-2-carbonyl}-amino)-acetic acid], for which the IC50 on GPR43 [1] and on GPR43 [2] was 101 to 500 nM throughout.

For the molecule `Cc1c(C(=O)N2CCC2(C)C(=O)N(C)Cc2ccc(Cl)cc2)oc2ccccc12` (stereo not drawn) [Compound 50, N-(4-chlorobenzyl)-N,2-dimethyl-1-(3-methylbenzofuran-2-carbonyl)azetidine-2-carboxamide], the half-maximal inhibitory concentration (IC50) on GPR43 [1] and on GPR43 [2] was greater than 1000 nM in each case.

`Cc1cccc(CNC(=O)C2(C)CCN2C(=O)Cc2ccc(Cl)cc2Cl)c1` (stereo not drawn) [Compound 51, 1-[2-(2,4-Dichloro-phenyl)-acetyl]-2-methyl-azetidine-2-carboxylic acid 3-methyl-benzylamide]: the IC50 at GPR43 [1] and on GPR43 [2] was greater than 1000 nM each time.

As for `CC1(C(=O)NCc2ccc(Cl)cc2)CCN1C(=O)C1(c2ccc(Cl)cc2Cl)CC1` (stereo not drawn) [Compound 52, N-(4-chlorobenzyl)-1-(1-(2,4-dichlorophenyl)cyclopropanecarbonyl)-2-methylazetidine-2-carboxamide], the IC50 at GPR43 [1] and at GPR43 [2] was greater than 1000 nM in each case.

`CNC(=O)CN(Cc1ccc(Cl)cc1)C(=O)C1(C)CCN1C(=O)Cc1cc(C)cc(C)c1` (stereo not drawn) [Compound 53, 1-[2-(3,5-Dimethyl-phenyl)-acetyl]-2-methyl-azetidine-2-carboxylic acid (4-chloro-benzyl)-methylcarbamoylmethyl-amide]: the 50% inhibitory concentration (IC50) on GPR43 [1] and at GPR43 [2] was 101 to 500 nM in each case.

Regarding `Cc1cc(C)cc(CC(=O)N2CCC2(C)C(=O)N(CC(=O)N(C)C)Cc2ccc(Cl)cc2)c1` (stereo not drawn) [Compound 54, 1-[2-(3,5-Dimethyl-phenyl)-acetyl]-2-methyl-azetidine-2-carboxylic acid (4-chloro-benzyl)-dimethylcarbamoylmethyl-amide], the IC50 at GPR43 [1] was greater than 1000 nM; on GPR43 [2], 501 to 1000 nM.

With `COC(=O)[C@H](C)N(Cc1ccc(Cl)cc1)C(=O)C1(C)CCN1C(=O)Cc1cc(C)cc(C)c1` (stereo partly drawn) [Compound 55, (S)-2-((4-Chloro-benzyl)-{1-[2-(3,5-dimethyl-phenyl)-acetyl]-2-methyl-azetidine-2-carbonyl}-amino)-propionic acid methyl ester], the IC50 at GPR43 [1] and at GPR43 [2] was greater than 1000 nM in each case.
